Results published in patent publication US11420966B2 (ACLARIS THERAPEUTICS, INC., priority 2019, dated 2022).

Columns and labels:
[1] = molecular target: JAK1 (Homo sapiens (Human), UniProt P23458); experiment: JAK1 enzyme activity assay (Thermo Fisher SelectScreen, Z-lyte); type: biochemical; conditions: read-out: JAK1 Inhibition IC50
In short: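 Z-lyte assay with 21.2-91.5 ng JAK and […] Tyr 06 in 50 mM HEPES pH 7.0, 10 mM MgCl2, 1 mM EGTA, 0.01% BRIJ-35; 1 h kinase reaction, then development reagent. 11-point dose-response from […] to 0.34 nM, 2% DMSO vehicle; IC50 from 4-parameter logistic fit of emission ratio.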

[2] = test system: IL-12 stimulated STAT4 phosphorylation on Tyr693 (JAK2/TYK2); experiment: JAK2/TYK2 cellular target modulation: IL-12 stimulated phospho-STAT4 in PBMC; type: cell-based; conditions: human PBMC, IL-12 1.7 ng/ml; read-out: IL12-STAT4 IC50
In short: (§1)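 Thawed human PBMC (200,000/well, RPMI/10% FBS) were preincubated with compound for 1 h at 37 °C, added from 10× stocks in 1% DMSO. Stimulation and read-out: IL-2 25 ng/ml, 5 min, pSTAT5 by MSD; IL-12 1.7 ng/ml, 25 min, pSTAT4 by MSD; IFNγ 10 ng/ml, 10 min, pSTAT1 by sandwich ELISA.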

[3] = test system: IL-2 stimulated STAT5 phosphorylation on Tyr694 (JAK1/3); experiment: JAK1/3 cellular target modulation: IL-2 stimulated phospho-STAT5 in PBMC; type: cell-based; conditions: human PBMC, IL-2 25 ng/ml; read-out: IL2-STAT5 IC50
In short: as §1

[4] = test system: IFNγ stimulated STAT1 phosphorylation on Tyr701 (JAK1/2); experiment: JAK1/2 cellular target modulation: IFNγ stimulated phospho-STAT1 in PBMC; type: cell-based; conditions: human PBMC, IFNγ 10 ng/ml; read-out: Infγ-STAT1 IC50
In short: as §1

[5] = molecular target: JAK3 (a.a. 781-1124) (Homo sapiens (Human), UniProt P52333); experiment: JAK3 enzyme activity assay (SRCtide phosphorylation, Caliper); type: biochemical; conditions: 1 uM ATP; read-out: JAK3 Inhibition IC50
Sequence of JAK3 (a.a. 781-1124) (P52333 781-1124): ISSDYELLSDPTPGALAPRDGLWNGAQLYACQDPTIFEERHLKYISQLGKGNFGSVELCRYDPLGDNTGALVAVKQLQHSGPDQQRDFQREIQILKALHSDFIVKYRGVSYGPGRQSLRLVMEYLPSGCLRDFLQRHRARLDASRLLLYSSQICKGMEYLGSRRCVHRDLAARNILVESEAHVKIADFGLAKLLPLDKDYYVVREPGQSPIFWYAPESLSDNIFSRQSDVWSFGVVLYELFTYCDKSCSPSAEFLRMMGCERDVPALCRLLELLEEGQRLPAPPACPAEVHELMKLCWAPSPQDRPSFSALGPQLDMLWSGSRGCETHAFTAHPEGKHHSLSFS

Sequence of JAK1 (P23458 whole entry): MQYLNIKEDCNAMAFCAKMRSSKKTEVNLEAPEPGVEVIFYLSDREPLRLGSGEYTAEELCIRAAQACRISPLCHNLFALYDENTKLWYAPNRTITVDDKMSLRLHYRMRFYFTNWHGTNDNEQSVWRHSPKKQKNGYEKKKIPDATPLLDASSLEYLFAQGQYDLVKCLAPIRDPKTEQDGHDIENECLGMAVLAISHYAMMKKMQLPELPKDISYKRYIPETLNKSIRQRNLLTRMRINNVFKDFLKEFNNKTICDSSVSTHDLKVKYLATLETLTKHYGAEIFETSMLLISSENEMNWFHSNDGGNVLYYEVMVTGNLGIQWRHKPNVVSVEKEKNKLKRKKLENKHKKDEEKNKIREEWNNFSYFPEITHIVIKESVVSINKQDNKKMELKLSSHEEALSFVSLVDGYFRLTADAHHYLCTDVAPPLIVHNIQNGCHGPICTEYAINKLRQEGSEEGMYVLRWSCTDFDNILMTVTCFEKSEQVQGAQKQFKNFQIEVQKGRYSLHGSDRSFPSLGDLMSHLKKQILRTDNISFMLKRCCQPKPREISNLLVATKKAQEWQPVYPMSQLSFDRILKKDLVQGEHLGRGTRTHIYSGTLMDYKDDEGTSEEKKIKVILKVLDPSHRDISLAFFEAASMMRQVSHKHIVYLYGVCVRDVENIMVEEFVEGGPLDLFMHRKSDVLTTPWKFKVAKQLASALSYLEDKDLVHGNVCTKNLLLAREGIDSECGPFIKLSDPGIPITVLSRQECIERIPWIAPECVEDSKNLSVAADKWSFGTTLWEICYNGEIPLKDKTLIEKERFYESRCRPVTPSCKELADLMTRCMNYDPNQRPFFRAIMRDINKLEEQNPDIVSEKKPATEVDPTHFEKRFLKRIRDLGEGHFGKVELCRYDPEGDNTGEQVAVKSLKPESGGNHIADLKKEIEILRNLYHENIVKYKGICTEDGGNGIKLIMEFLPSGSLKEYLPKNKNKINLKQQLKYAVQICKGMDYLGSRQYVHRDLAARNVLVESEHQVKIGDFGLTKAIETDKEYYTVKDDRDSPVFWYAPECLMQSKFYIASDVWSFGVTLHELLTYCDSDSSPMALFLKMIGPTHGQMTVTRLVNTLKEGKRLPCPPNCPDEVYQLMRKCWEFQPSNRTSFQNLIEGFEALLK

IC50 [1]: ≤ 0.01 µM
IC50 [2]: > 1 µM
IC50 [3]: ≤ 0.1 µM
IC50 [4]: ≤ 0.1 µM
IC50 [5]: ≤ 0.01 µM
Compound: CNC(=O)c1coc(-c2cnc3[nH]ccc3c2N[C@@H]2C[C@H](C)CN(C(=O)CC#N)C2)n1 [Example 31, 2-(4-(((3R,5S)-1-(2-cyanoacetyl)-5-methylpiperidin-3-yl)amino)-1H-pyrrolo[2,3-b]pyridin-5-yl)-N-methyloxazole-4-carboxamide]
